The target of assay [1] is T1, ERα receptor (Rattus norvegicus, UniProt P06211).
T1 sequence (P06211 1-600): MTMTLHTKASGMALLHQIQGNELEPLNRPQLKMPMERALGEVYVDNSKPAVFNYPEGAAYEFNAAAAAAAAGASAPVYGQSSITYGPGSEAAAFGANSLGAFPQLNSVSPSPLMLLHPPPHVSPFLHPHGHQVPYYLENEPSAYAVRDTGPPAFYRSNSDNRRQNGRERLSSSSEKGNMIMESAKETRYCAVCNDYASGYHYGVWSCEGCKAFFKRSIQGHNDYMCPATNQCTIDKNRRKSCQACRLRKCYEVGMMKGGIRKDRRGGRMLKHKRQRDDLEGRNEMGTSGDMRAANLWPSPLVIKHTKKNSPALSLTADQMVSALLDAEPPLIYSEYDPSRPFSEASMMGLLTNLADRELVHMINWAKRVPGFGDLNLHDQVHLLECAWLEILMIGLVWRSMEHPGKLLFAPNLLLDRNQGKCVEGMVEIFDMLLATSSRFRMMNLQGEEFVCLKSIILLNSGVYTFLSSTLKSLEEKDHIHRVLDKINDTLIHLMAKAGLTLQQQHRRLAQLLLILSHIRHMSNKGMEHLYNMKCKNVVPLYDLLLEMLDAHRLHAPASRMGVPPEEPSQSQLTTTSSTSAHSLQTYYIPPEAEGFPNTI
As to the kind of experiment: Saturation binding / Scatchard analysis, D12 cytosolic (S2) fraction. The protocol:
(§1) Briefly, cells were harvested in a binding buffer (10 mM Tris-HCl, 1 mM EDTA, 1 mM DTT; pH=7.2) containing 5 μg/ml protease inhibitors (aprotinin, leupeptin, phosphoramidon, PMSF, pepstatin), pelleted to remove cell media and then homogenized by mechanical disruption (polytron; speed 6 for 10 sec). Unlysed cells and debris were removed by centrifugation at 15,000×g for 15 min at 4° C. The resulting supernatant was homogenized and membranes were isolated by centrifugation at 100,000×g for 1 h at 4° C. The supernatant obtained following the high speed spin was labeled S2 (cytosol) while the pellet was labeled P2 (membranes). The pellet (P2) was resuspended using a glass homogenizer in 3 ml of 0.25 M sucrose in binding buffer. The sucrose gradient was layered in a 15 ml centrifuge tube starting with 41%, 25%, and 10% sucrose using J tubes. The P2 sample was added to the top and the remaining layer was capped with binding buffer. The tubes were centrifuged at 35,000×g for 1 h, placed in a fraction collector (bottom tube draw) and 500 μl samples were collected. Protein concentrations were determined with BCA reagent (Pierce). […] Statistical significance between IC50s and KDs was determined using a pair-wise Z-test. […]

In assay [2] the target is mER receptor. As to the kind of experiment: Saturation binding / Scatchard analysis, D12 membrane (P2) fraction. Also noted: species or system rat. The protocol:
as §1

Consider `C[C@]12CC[C@@H]3c4ccc(O)cc4CC[C@H]3[C@@H]1C[C@@H]([125I])[C@@H]2O` [[^125I]-16α-iodo-3,17β-E2, [^125I]-16-α-iodo-3,17-βestradiol], for which the slope value in assay [1] (S2 fraction) amounted to 0.8. Further, the Kd in assay [1] (cytosolic (S2) binding) stood at 0.124 ± 0.0171 nM; in assay [2], 0.118 ± 0.0436 nM.

As usually defined, the Kd is the concentration at which binding is half-saturated.

Values taken from patent US20040180819A1, “Characterization of a membrane estrogen receptor” (priority 2001, published 2004).
